Experimental data: patent US20260151403A1, “NEK7 DEGRADERS AND METHODS OF USE THEREOF” (Captor Therapeutics S.A., priority 2022, published 2026)
Counter-ions that a name gives are not always drawn.

Key:
[1] = target: T1, [NEK7]-[compound of formula (I)]-[CRBN/DDB1] complex (Homo sapiens, UniProt Q8TDX7+Q96SW2); experiment: AlphaLISA dose response ternary complex formation assay; assay type: binding; conditions: 1 μM compound, normalized to maximum signal of Compound 2 (positive control) and DMSO background; for activation at 1 µM: read-out: Normalized AlphaLISA ternary complex average signal at 1 μM molecule
T1 sequence (Q8TDX7 whole entry): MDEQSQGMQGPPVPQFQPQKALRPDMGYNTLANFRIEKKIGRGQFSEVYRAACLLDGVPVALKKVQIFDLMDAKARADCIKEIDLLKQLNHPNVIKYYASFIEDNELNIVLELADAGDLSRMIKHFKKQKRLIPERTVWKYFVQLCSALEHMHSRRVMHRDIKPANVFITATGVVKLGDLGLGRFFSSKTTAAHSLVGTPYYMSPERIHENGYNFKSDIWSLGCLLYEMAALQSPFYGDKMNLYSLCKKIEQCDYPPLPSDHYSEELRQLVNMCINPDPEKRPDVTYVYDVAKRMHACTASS
T1 sequence (Q96SW2 whole entry): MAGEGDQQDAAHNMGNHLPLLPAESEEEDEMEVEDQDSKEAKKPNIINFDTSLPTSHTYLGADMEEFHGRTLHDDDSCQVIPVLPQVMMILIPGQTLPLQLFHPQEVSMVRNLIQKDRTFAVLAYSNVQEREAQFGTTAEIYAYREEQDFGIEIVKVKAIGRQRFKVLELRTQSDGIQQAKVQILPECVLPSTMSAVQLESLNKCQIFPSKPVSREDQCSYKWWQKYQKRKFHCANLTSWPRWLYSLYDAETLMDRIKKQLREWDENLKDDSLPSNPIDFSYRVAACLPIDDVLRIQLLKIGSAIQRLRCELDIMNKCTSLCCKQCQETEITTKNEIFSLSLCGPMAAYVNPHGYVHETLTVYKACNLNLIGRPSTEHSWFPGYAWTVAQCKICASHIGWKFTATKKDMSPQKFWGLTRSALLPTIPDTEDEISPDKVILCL
T1 sequence (Q16531 whole entry partner): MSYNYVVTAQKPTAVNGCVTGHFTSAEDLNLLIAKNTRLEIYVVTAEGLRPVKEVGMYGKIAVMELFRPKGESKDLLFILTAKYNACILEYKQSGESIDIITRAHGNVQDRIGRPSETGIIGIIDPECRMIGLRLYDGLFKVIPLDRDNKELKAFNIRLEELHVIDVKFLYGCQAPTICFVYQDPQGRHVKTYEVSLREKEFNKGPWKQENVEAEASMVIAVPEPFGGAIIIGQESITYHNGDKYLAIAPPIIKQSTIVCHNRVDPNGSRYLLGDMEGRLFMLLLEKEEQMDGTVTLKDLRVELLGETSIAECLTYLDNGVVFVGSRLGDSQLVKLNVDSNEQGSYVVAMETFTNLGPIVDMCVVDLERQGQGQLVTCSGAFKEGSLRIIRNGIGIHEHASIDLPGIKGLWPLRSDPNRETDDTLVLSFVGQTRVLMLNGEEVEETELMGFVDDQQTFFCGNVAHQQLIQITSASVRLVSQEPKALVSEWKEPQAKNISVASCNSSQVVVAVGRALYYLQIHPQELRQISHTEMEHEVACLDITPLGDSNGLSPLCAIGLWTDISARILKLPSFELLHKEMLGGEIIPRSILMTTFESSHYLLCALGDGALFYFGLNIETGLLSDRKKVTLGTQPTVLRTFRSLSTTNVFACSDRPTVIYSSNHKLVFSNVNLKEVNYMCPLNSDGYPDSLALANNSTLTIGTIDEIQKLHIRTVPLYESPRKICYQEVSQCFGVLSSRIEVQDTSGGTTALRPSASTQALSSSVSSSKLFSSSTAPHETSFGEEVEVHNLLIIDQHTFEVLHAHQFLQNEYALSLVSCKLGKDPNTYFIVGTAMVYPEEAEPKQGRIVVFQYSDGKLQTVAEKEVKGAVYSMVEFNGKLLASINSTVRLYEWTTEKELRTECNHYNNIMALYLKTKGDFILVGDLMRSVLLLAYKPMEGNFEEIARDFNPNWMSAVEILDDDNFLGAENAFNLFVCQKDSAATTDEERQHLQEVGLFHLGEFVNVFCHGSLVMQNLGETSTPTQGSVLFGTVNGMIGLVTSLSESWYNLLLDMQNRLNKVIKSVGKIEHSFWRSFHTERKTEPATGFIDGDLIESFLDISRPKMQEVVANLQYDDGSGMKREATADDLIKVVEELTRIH
Description: The effect of the molecular glue compounds of the invention on the formation of a ternary complex composed of [NEK7]-[compound of formula (I)]-[CRBN/DDB1] was investigated with two methods: AlphaLISA dose response assay or HTRF ternary complex assay.
Two types of protein solution were prepared: • 200 nM biotinylated NEK7, 40 μg/ml AlphaScreen Streptavidin-coated Donor Beads in HBS (10 mM HEPES, 150 mM NaCL, pH 7.4) buffer with 0.1% Tween-20 and 1 mM DTT, • 200 nM 6×His-CRBN/Strep-DDB1, 40 μg/ml AlphaLISA Anti-6×His Acceptor beads in HBS buffer with 0.1% Tween-20 and 1 mM DTT.
The prepared solutions were incubated at room temperature for 30 min and then the solution containing the donor beads was mixed with the solution containing the acceptor beads.
The tested compounds were dispensed onto a white 384-well AlphaPlate 384 SW. DMSO was backfilled to all wells, resulting in a final DMSO content of 2%. Wells containing only DMSO served as background. Next, 10 μl of solution with donor and acceptor beads was added to the wells.
The plate was sealed with transparent film and shaken using a VibroTurbulator for 60 sec at room temperature, level 3. The plate was then spun down shortly (10 s, 1000 rcf, room temperature) and incubated at 25° C. for 30 min.
The read-out was performed with PerkinElmer Enspire Multimode Plate Reader (method for AlphaLISA 384-well low volume, Filterset: λexc=680 nm, λem=615 nm).
The results were analyzed as follows: • 1) an average of luminescence for background signal was calculated and used as a negative control; • 2) average of the maximum measured luminescence for Compound 2 was calculated and used as an internal positive control; • 3) raw luminescence values were normalized against positive and negative controls; • 4) Normalized responses to Compound 2 were determined.

[2] = target: T1, [NEK7]-[compound of formula (I)]-[CRBN/DDB1] complex; experiment: HTRF ternary complex assay; assay type: binding; conditions: dose-response, 180 min at 25° C.; for EC50: read-out: HTRF ternary complex Average pEC50 by molecule (converted)
Description: The effect of the molecular glue compounds of the invention on the formation of a ternary complex composed of [NEK7]-[compound of formula (I)]-[CRBN/DDB1] was investigated.
Mix solution of proteins and reagents was prepared: • 24 nM NEK7, 52.8 nM 6×His-CRBN/Strep-DDB1, 3 nM of Streptavidin-Eu cryptate […] and 6.67 nM of Anti-6×his-d2 […] was prepared in PPI Europium detection buffer (Cisbio) with 1 mM DTT.
The tested compounds in dose-response were dispensed onto a white 384-well low volume plate (Greiner, 784075). DMSO was backfilled to all wells, resulting in a final DMSO content of 0.5%. Wells containing only DMSO served as background.
The plate was sealed with transparent film and shaken using a VibroTurbulator for 60 sec at level 3.
The plate was then spun down shortly (10 s, 1000 rcf) and incubated at 25° C. for 180 min.
The read-out was performed with plate reader (Pherastar, BMG Labtech) in time resolved fluorescence mode. Filterset: TR 337 665 620.
The results were analyzed as follows: • 1) an average of fluorescence for background signal was calculated and used as a negative control; • 2) raw fluorescence values for tested compounds were normalized against negative controls; • 3) saturation curve was fitted to specific binding with Hill slope model; • 4) EC50 and pEC50 values were determined.

NEK7-HiBiT protein = NEK7-HiBiT protein (Homo sapiens, UniProt Q8TDX7); experiment: NEK7-HiBiT degradation assay (Nano-Glo HiBiT Lytic Assay) in HEK293 NEK7-HiBiT cells; assay type: cell-based; conditions: 24 h, conc. 0.1, 1 and 10 μM tested, concentration of the table values not stated, mean of 3 technical replicates
Sequence of NEK7-HiBiT protein (Q8TDX7 whole entry): as the sequence (Q8TDX7 whole entry) above
Sequence of NEK7-HiBiT protein (Q96SW2 whole entry, further chain): as the sequence (Q96SW2 whole entry) above
Sequence of NEK7-HiBiT protein (Q16531 whole entry partner): as the sequence (Q16531 whole entry partner) above
Description: HEK293 NEK7-HiBiT cells were generated using CRISPR-Cas9 system. HEK293 cells were transformed with pSpCas9-BB-2A-Puro v2.0 plasmid carrying gRNA targeting the N-terminus of NEK7 and ssODN template containing the HiBiT tag sequence with flanking homology sequences. Neon Transfection System (Thermo Fisher Scientific) was used for electroporation. HEK293 NEK7-HiBiT cells were cultured with DMEM Glutamax (Gibco) supplemented with 10% heat inactivated FBS (Gibco). After transfection the culture medium was changed to DMEM Glutamax with 10% heat-inactivated FBS and 1% Penicillin-Streptomycin (Biowest) supplemented with Puromycin (2 μg/ml; Invivogen) for clonal selection. In order to isolate single cell clones for further validation and analysis, limiting dilution cloning in 96-well plates was performed. When the single clones reached confluency, HiBiT Lytic Assay (Promega) was performed in order to identify HiBiT positive clones. The clone selected for further studies was verified and validated using genotyping and HiBiT Blotting (Promega).
Selected clone of HEK293 NEK7-HiBiT cells was maintained in the DMEM-Glutamax medium supplemented with 10% of heat-inactivated FBS (Gibco) and 1% of Penicillin-Streptomycin Solution 100x (Biowest) at 37° C., 5% CO2 and subcultured every 2-3 days.
For Nano-Glo HiBiT Lytic Assay HEK293 NEK7-HiBiT cells were seeded at the density 2×10^3 cells in triplicates in the 40 μL of growth medium per single well on 384 well plate (Greiner Bio-One). Compounds or DMSO were added to treatment plates using Echo555 Liquid Handler and incubated at 37° C., 5% CO2 for 24 hours. After incubation 40 μL of Nano-Glo HiBiT Lytic Reagent (prepared according to the manufacturer protocol) were added to 40 μL of the cell culture medium present in each well. The plate content was briefly mixed (460 rpm) on an orbital shaker to ensure cell lysis. The plate was left at RT protected from light for another 10 min to stabilize the luminescent signal. The luminescence signal was measured using CLARIOstar Multimode Plate Reader. Focus and gain were adjusted to DMSO treated cells. The results were calculated as the NEK7-HiBiT % relative to the DMSO control of 3 technical replicates relative to the DMSO control.
HEK293 NEK7-HiBiT cells were treated with the compounds (conc. 0.1, 1 and 10 μM) or DMSO for 24 h. After incubation with compounds NEK7-HiBiT degradation was measured as a luminescence signal using CLARIOstar Multimode Plate reader.
Additionally, compounds reducing NEK7-HiBiT protein level by >=50% at 0.1 μM, were also identified.

SMILES | Normalized AlphaLISA ternary complex average signal at 1 μM molecule [1] | EC50 [2] [nM] | activation at 1 µM [1] [%] | HTRF ternary complex Average pEC50 by molecule [2] | Levels of NEK7-HiBiT Protein (as a % of DMSO control) (NEK7-HiBiT protein)
O=C1CCC(N2Cc3cc(C4CCC(c5ccccc5)CN4)ccc3C2=O)C(=O)N1 (single isomer, unassigned) [32 Isomer 2, 3-(1-oxo-5-(5-phenylpiperidin-2-yl)isoindolin-2-yl)piperidine-2,6-dione] | A (Normalized activity > 80%) | 316 to 1000 | – | – | A (Levels of NEK7-HiBiT Protein ≤ 25%)
CC1c2cc(-c3ccccn3)ccc2C(=O)N1C1CCC(=O)NC1=O (centres unmarked) [24(2), 3-(3-methyl-1-oxo-5-(pyridin-2-yl)isoindolin-2-yl)piperidine-2,6-dione] | – | 100 to 316 | > 80 | – | A (Levels of NEK7-HiBiT Protein ≤ 25%)
O=C1CCC(N2C(=O)c3cccc4c(-c5ccccn5)ccc2c34)C(=O)N1 (centres unmarked) [28(2), 3-(2-oxo-6-(pyridin-2-yl)benzo[cd]indol-1 (2H)-yl)piperidine-2,6-dione] | – | > 3160 | < 10 | – | C (Levels of NEK7-HiBiT Protein > 50% and <75%)
CC(=O)NC1CCC(c2ccc3c(c2)CN(C2CCC(=O)NC2=O)C3=O)NC1 (single isomer, unassigned) [33 Isomer 2, N-(6-(2-(2,6-dioxopiperidin-3-yl)-1-oxoisoindolin-5-yl)piperidin-3-yl)acetamide] | B (Normalized activity > 20% and <80%) | – | – | ++++ (7.0 > pEC50 > 6.5) | B (Levels of NEK7-HiBiT Protein > 25% and ≤50%)
O=C1CCC(N2Cc3cc(-c4cc5ccccc5cn4)ccc3C2=O)C(=O)N1 (centres unmarked) [6(2), 3-(5-(isoquinolin-3-yl)-1-oxoisoindolin-2-yl)piperidine-2,6-dione] | – | 100 to 316 | > 80 | – | B (Levels of NEK7-HiBiT Protein > 25% and ≤50%)
CC(=O)Nc1ccc(-c2ccc3c(c2)CN(C2CCC(=O)NC2=O)C3=O)nc1 (centres unmarked) [7(2), N-(6-(2-(2,6-dioxopiperidin-3-yl)-1-oxoisoindolin-5-yl)pyridin-3-yl)acetamide] | – | 100 to 316 | > 80 | – | B (Levels of NEK7-HiBiT Protein > 25% and ≤50%)
O=C1CCC(N2Cc3cc(C4CCC(Cc5ccccc5)CN4)ccc3C2=O)C(=O)N1 (single isomer, unassigned) [35 Isomer 2, 3-(5-(5-benzylpiperidin-2-yl)-1-oxoisoindolin-2-yl)piperidine-2,6-dione] | – | – | – | – | B (Levels of NEK7-HiBiT Protein > 25% and ≤50%)
CC(C)(C)C(=O)OCN1C(=O)CCC(N2Cc3cc(C4CCCCN4)ccc3C2=O)C1=O (centres unmarked) [Compound 63, (2,6-dioxo-3-(1-oxo-5-(piperidin-2-yl)isoindolin-2-yl)piperidin-1-yl)methyl pivalate] | – | – | – | – | A (Levels of NEK7-HiBiT Protein ≤ 25%)

The next lines start with results.

Normalized AlphaLISA ternary complex average signal at 1 μM molecule [1] | EC50 [2] [nM] | activation at 1 µM [1] [%] | HTRF ternary complex Average pEC50 by molecule [2] | SMILES | Levels of NEK7-HiBiT Protein (as a % of DMSO control) (NEK7-HiBiT protein)
– | > 3160 | < 10 | – | O=C1CCC(N2Cc3cc(C4CCCCO4)sc3C2=O)C(=O)N1 (centres unmarked) [Compound 73, 3-(6-oxo-2-(tetrahydro-2H-pyran-2-yl)-4,6-dihydro-5H-thieno[2,3-c]pyrrol-5-yl)piperidine-2,6-dione] | D (Levels of NEK7-HiBiT Protein ≥ 75%)
– | 100 to 316 | > 80 | – | CCCCC1CCCC(c2ccc3c(c2)CN(C2CCC(=O)NC2=O)C3=O)N1 (mixture of isomers) [Compound 40, 3-(5-(6-butylpiperidin-2-yl)-1-oxoisoindolin-2-yl)piperidine-2,6-dione] | A (Levels of NEK7-HiBiT Protein ≤ 25%)
– | 100 to 316 | 10 to 20 | – | O=C1CCC(N2C(=O)c3ccc(C4CCCCN4)c4cccc2c34)C(=O)N1 (centres unmarked) [Compound 66, 3-(2-oxo-5-(piperidin-2-yl)benzo[cd]indol-1 (2H)-yl)piperidine-2,6-dione trifluoroacetate] | B (Levels of NEK7-HiBiT Protein > 25% and ≤50%)
– | 316 to 1000 | > 80 | – | O=C1CCC(N2Cc3cc([C@H]4CCCCN4)ccc3C2=O)C(=O)N1 (stereo partly drawn) [Compound 9, 3-(1-oxo-5-((R)-piperidin-2-yl)isoindolin-2-yl)piperidine-2,6-dione] | A (Levels of NEK7-HiBiT Protein ≤ 25%)
A (Normalized activity > 80%) | 1000 to 3160 | – | – | CCCCC1CCC(c2ccc3c(c2)CN(C2CCC(=O)NC2=O)C3=O)OC1 (single isomer, unassigned) [70 Isomer 2, 3-(5-(5-butyltetrahydro-2H-pyran-2-yl)-1-oxoisoindolin-2-yl)piperidine-2,6-dione] | B (Levels of NEK7-HiBiT Protein > 25% and ≤50%)
A (Normalized activity > 80%) | – | – | +++ (6.5 > pEC50 > 6.0) | CC(C)C1CCC(c2ccc3c(c2)CN(C2CCC(=O)NC2=O)C3=O)NC1 (single isomer, unassigned) [55 Isomer 2, 3-(5-(5-isopropylpiperidin-2-yl)-1-oxoisoindolin-2-yl)piperidine-2,6-dione] | B (Levels of NEK7-HiBiT Protein > 25% and ≤50%)
– | 100 to 316 | 10 to 20 | – | O=C1CCC(N2Cc3cc(C4COCCN4)ccc3C2=O)C(=O)N1 (centres unmarked) [Compound 61, 3-(5-(morpholin-3-yl)-1-oxoisoindolin-2-yl)piperidine-2,6-dione] | C (Levels of NEK7-HiBiT Protein > 50% and <75%)
